# Assay results as given in patent US12371416B2, “Compounds for inhibition of fibroblast activation protein” (USTAV ORGANICKE CHEMIE A BIOCHEMIE AV CR, V. V. I., priority 2020, dated 2025).
# Tests used:
# CCRF-CEM = test: Cytotoxicity (XTT) on CCRF-CEM cells; type: cell-based, human; details: 72 h
# Description: (§1) The cytotoxicity of the substances was measured on four tumour cell lines: CCRF-CEM, HepG2, Hela, HL-60. All cell lines were purchased from ATCC (Manassas, VA, USA). Cells were cultured in RPMI-1640 or DMEM medium containing 10% (wt/wt) FBS and 1% (wt/wt) GlutaMax. Cells were distributed at 2,000-10,000 per well of a 384-well plate (Thermo Fisher Scientific, Waltham, USA) and incubated overnight. After 24 hours, test substance solutions (10 or 100 μmol·l^−1) were added to the wells and the cells were incubated with the test substances at 37° C. and 5% (vol./vol.) CO2 for another 72 h. XTT dye (XTT cell proliferation kit II, Roche Diagnostics GmbH, Mannheim, Germany) was added to the wells according to the manufacturer's protocol. After one hour of incubation with the dye, the absorbance at 495 nm was measured and the signal was compared with the control (100% viability=cells without test substance).
# [1] = Stability in murine microsomes; type: in vitro ADME; details: for Stability in murine microsomes: murine microsomes 0.5 mg/ml, 5 μmol·l^−1 test substance, NADPH
# Description: The incubation of 37.5 μl of the mixture was terminated by the addition of 150 μl of acetonitrile containing caffeine as an internal standard, cooled to 0° C. The mixture was vortexed (5 min) and centrifuged (20500 g; 10 min). The supernatant was transferred to a vial, and 1 μl of the mixture was used for LC-MS analysis. […] Results are presented as the percentage of test substance versus control (aliquot taken at time 0).
# Hela = test: Cytotoxicity (XTT) on Hela cells; type: cell-based, human; details: 72 h
# Description: as §1
# HL-60 = test: Cytotoxicity (XTT) on HL-60 cells; type: cell-based, human; details: 72 h
# Description: as §1
# [2] = Stability in murine plasma; type: in vitro ADME; details: 37° C.; for Stability in murine plasma: up to 120 minutes
# Description: (§2) An aliquot of plasma was extracted with 120 μl of methanol containing caffeine as an internal standard. The solution was vortexed (5 min) and centrifuged (20500 g; 10 min), the supernatant was transferred to a vial, and 1 μl of the mixture was used for LC-MS analysis. […] Results are presented as the percentage of test substance versus control (aliquot taken at time 0).
# [3] = Stability in human plasma; type: in vitro ADME; details: 37° C.; for Stability in human plasma: up to 120 minutes
# Description: as §2
# HepG2 = test: Cytotoxicity (XTT) on HepG2 cells; type: cell-based, human; details: 72 h
# Description: as §1
# DPPIV = target: T1, DPPIV (Homo sapiens, UniProt P27487); test: Inhibitory activity against human recombinant DPPIV (IC50); type: biochemical; details: selected substances
# T1 construct: purchased R&D Systems 9168-SE-010
# Description: (§3) Data were analysed by nonlinear regression with GraphPrism (version 8.3.1). The measurement results are given as values of the mean inhibitory concentration IC50 and its linearized form via the negative decimal logarithm of pIC50.
# PREP = target: T2, PREP (Homo sapiens, UniProt P48147); test: Inhibitory activity against human recombinant PREP (IC50); type: biochemical; details: selected substances
# T2 construct: purchased R&D Systems 4308-SE-010
# T2 sequence (P48147 1-710): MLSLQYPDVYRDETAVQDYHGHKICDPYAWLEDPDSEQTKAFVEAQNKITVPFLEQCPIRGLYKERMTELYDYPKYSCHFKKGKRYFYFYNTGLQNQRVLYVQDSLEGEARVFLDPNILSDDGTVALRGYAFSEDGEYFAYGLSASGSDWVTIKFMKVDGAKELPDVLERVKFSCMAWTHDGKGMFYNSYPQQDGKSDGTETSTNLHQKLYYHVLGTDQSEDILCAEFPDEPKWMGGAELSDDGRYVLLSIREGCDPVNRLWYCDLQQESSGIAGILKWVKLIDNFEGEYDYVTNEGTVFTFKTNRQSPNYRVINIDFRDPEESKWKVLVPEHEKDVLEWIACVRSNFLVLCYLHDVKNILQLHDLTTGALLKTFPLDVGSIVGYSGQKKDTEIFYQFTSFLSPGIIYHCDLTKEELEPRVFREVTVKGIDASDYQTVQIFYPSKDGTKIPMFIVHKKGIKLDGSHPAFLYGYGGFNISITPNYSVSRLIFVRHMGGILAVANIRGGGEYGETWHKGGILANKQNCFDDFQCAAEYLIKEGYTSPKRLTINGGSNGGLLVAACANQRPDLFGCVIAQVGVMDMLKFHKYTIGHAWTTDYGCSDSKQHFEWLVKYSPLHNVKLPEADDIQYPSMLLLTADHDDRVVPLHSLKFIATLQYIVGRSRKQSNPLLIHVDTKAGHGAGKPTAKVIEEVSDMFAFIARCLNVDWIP
# Description: as §3
# T1 sequence (P27487 whole entry): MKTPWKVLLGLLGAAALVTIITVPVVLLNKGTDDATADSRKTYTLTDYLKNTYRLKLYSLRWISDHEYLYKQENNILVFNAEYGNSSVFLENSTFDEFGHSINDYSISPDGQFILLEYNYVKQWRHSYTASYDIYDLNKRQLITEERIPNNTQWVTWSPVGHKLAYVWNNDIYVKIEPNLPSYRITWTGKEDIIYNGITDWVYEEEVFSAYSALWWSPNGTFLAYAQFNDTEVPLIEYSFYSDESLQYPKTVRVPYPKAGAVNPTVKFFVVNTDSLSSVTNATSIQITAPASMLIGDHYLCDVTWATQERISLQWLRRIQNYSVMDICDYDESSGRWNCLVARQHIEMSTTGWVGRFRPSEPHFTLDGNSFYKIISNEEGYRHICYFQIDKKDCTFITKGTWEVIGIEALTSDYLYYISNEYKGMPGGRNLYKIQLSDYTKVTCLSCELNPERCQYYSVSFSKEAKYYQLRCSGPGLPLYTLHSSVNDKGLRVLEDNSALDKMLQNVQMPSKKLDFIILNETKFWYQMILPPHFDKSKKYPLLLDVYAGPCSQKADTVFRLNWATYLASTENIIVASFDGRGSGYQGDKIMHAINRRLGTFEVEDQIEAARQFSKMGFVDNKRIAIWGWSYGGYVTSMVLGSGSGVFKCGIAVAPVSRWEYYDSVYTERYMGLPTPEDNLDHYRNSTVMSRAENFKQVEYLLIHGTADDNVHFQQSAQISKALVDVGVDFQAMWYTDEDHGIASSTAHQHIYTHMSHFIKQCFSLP
compound,measurement,setting,value
"O=C(NCc1ccccc1)C(=O)[C@@H]1CCCN1C(=O)CNC(=O)c1ccnc2ccccc12 [Compound 3a, (S)—N-(2-(2-(2-(Benzylamino)-2-oxoacetyl)pyrrolidin-1-yl)-2-oxoethyl)quinoline-4-carboxamide]",Cell viability CEM 10 μM,CCRF-CEM,105 % vs. control
same,Cell viability CEM 100 μM,CCRF-CEM,94 % vs. control
same,Stability in murine microsomes,[1],stable
same,Cell viability HeLa S3 10 μM,Hela,119 % vs. control
same,Cell viability HeLa S3 100 μM,Hela,96 % vs. control
same,Cell viability HL60 10 μM,HL-60,94 % vs. control
same,Cell viability HL60 100 μM,HL-60,106 % vs. control
same,Stability in murine plasma,[2],stable
same,Stability in human plasma,[3],stable
same,Cell viability HepG2 10 μM,HepG2,103 % vs. control
same,Cell viability HepG2 100 μM,HepG2,107 % vs. control
"COc1ccc(CCNC(=O)C(=O)[C@@H]2CCCN2C(=O)CNC(=O)c2ccnc3ccccc23)cc1OC [Compound 3e, (S)—N-(2-(2-(2-((3,4-Dimethoxyphenethyl)amino)-2-oxoacetyl)pyrrolidin-1-yl)-2-oxoethyl)quinoline-4-carboxamide]",Cell viability CEM 10 μM,CCRF-CEM,108 % vs. control
same,Cell viability CEM 100 μM,CCRF-CEM,85 % vs. control
same,Stability in murine microsomes,[1],partially stable
same,Cell viability HeLa S3 10 μM,Hela,104 % vs. control
same,Cell viability HeLa S3 100 μM,Hela,86 % vs. control
same,Cell viability HL60 10 μM,HL-60,101 % vs. control
same,Cell viability HL60 100 μM,HL-60,106 % vs. control
same,Stability in murine plasma,[2],stable
same,IC50,DPPIV,> 4000 nM
same,Stability in human plasma,[3],stable
same,IC50,PREP,0.5 nM
same,Cell viability HepG2 10 μM,HepG2,92 % vs. control
same,Cell viability HepG2 100 μM,HepG2,90 % vs. control
"CCCCCNC(=O)C(=O)[C@@H]1CCCN1C(=O)CNC(=O)c1ccnc2ccccc12 [Compound 3j, (S)—N-(2-Oxo-2-(2-(2-oxo-2-(pentylamino)acetyl)pyrrolidin-1-yl)ethyl)quinoline-4-carboxamide]",Cell viability CEM 10 μM,CCRF-CEM,94 % vs. control
same,Cell viability CEM 100 μM,CCRF-CEM,119 % vs. control
same,Cell viability HeLa S3 10 μM,Hela,93 % vs. control
same,Cell viability HeLa S3 100 μM,Hela,109 % vs. control
same,Cell viability HL60 10 μM,HL-60,109 % vs. control
same,Cell viability HL60 100 μM,HL-60,123 % vs. control
same,IC50,DPPIV,> 4000 nM
same,IC50,PREP,0.4 nM
same,Cell viability HepG2 10 μM,HepG2,76 % vs. control
same,Cell viability HepG2 100 μM,HepG2,124 % vs. control
"CC(C)(C)OC(=O)CNC(=O)C(=O)[C@@H]1CCCN1C(=O)CNC(=O)c1ccnc2ccccc12 [Compound 3l, tert-Butyl (S)-(2-oxo-2-(1-((quinoline-4-carbonyl)glycyl)pyrrolidin-2-yl)acetyl)glycinate]",Cell viability CEM 10 μM,CCRF-CEM,104 % vs. control
same,Cell viability CEM 100 μM,CCRF-CEM,121 % vs. control
same,Cell viability HeLa S3 10 μM,Hela,95 % vs. control
same,Cell viability HeLa S3 100 μM,Hela,100 % vs. control
same,Cell viability HL60 10 μM,HL-60,104 % vs. control
same,Cell viability HL60 100 μM,HL-60,111 % vs. control
same,IC50,DPPIV,> 4000 nM
same,IC50,PREP,0.6 nM
same,Cell viability HepG2 10 μM,HepG2,97 % vs. control
same,Cell viability HepG2 100 μM,HepG2,109 % vs. control
"COC(=O)[C@H](Cc1ccccc1)NC(=O)CNC(=O)C(=O)[C@@H]1CCCN1C(=O)CNC(=O)c1ccnc2ccccc12 [Compound 5f, Methyl (2-oxo-2-((S)-1-((quinoline-4-carbonyl)glycyl)pyrrolidin-2-yl)acetyl)glycyl-L-phenylalaninate]",Cell viability CEM 10 μM,CCRF-CEM,98 % vs. control
same,Cell viability CEM 100 μM,CCRF-CEM,72 % vs. control
same,Stability in murine microsomes,[1],partially stable
same,Cell viability HeLa S3 10 μM,Hela,96 % vs. control
same,Cell viability HeLa S3 100 μM,Hela,100 % vs. control
same,Cell viability HL60 10 μM,HL-60,114 % vs. control
same,Cell viability HL60 100 μM,HL-60,98 % vs. control
same,substance degraded within 20 minutes,[2],100%
same,Stability in murine plasma,[2],degrade immediately
same,substance degraded within 120 minutes,[3]; 120 minutes,25%
same,Stability in human plasma,[3],stable
same,IC50,PREP,0.3 nM
same,Cell viability HepG2 10 μM,HepG2,78 % vs. control
same,Cell viability HepG2 100 μM,HepG2,121 % vs. control
"COC(=O)[C@H](CCC(N)=O)NC(=O)CNC(=O)C(=O)[C@@H]1CCCN1C(=O)CNC(=O)c1ccnc2ccccc12 [Compound 5g, Methyl (2-oxo-2-((S)-1-((quinoline-4-carbonyl)glycyl)pyrrolidin-2-yl)acetyl)glycyl-L-glutaminate]",Cell viability CEM 10 μM,CCRF-CEM,114 % vs. control
same,Cell viability CEM 100 μM,CCRF-CEM,101 % vs. control
same,Cell viability HeLa S3 10 μM,Hela,109 % vs. control
same,Cell viability HeLa S3 100 μM,Hela,99 % vs. control
same,Cell viability HL60 10 μM,HL-60,88 % vs. control
same,Cell viability HL60 100 μM,HL-60,103 % vs. control
same,Cell viability HepG2 10 μM,HepG2,102 % vs. control
same,Cell viability HepG2 100 μM,HepG2,108 % vs. control
"COC(=O)[C@H](CCC(=O)OCc1ccccc1)NC(=O)CNC(=O)C(=O)[C@@H]1CCCN1C(=O)CNC(=O)c1ccnc2ccccc12 [Compound 5h, 5-Benzyl 1-methyl (2-oxo-2-((S)-1-((quinoline-4-carbonyl)glycyl)pyrrolidin-2-yl)acetyl)glycyl-L-glutamate]",Cell viability CEM 10 μM,CCRF-CEM,114 % vs. control
same,Cell viability CEM 100 μM,CCRF-CEM,103 % vs. control
same,Stability in murine microsomes,[1],unstable
same,substance degraded within 20 minutes,"[1]; murine microsomes, 20 minutes",100%
same,Cell viability HeLa S3 10 μM,Hela,116 % vs. control
same,Cell viability HeLa S3 100 μM,Hela,93 % vs. control
same,Cell viability HL60 10 μM,HL-60,109 % vs. control
same,Cell viability HL60 100 μM,HL-60,106 % vs. control
same,substance degraded within 20 minutes,[2],100%
same,Stability in murine plasma,[2],degrade immediately
same,Stability in human plasma,[3],stable
same,Cell viability HepG2 10 μM,HepG2,112 % vs. control
same,Cell viability HepG2 100 μM,HepG2,105 % vs. control
COC(=O)[C@H](CCCCNC(=O)OCc1ccccc1)NC(=O)CNC(=O)C(=O)[C@@H]1CCCN1C(=O)CNC(=O)c1ccnc2ccccc12 [Compound 5i],Cell viability CEM 10 μM,CCRF-CEM,107 % vs. control
same,Cell viability CEM 100 μM,CCRF-CEM,107 % vs. control
same,Cell viability HeLa S3 10 μM,Hela,94 % vs. control
same,Cell viability HeLa S3 100 μM,Hela,98 % vs. control
same,Cell viability HL60 10 μM,HL-60,104 % vs. control
same,Cell viability HL60 100 μM,HL-60,101 % vs. control
same,IC50,PREP,0.26 nM
same,Cell viability HepG2 10 μM,HepG2,89 % vs. control
same,Cell viability HepG2 100 μM,HepG2,101 % vs. control
